The target in the assay is CDK7/CycH/MNAT1 (Homo sapiens (Human), UniProt P50613). Briefly: Biochemical assay for CDK7 (TR-FRET kinase assay). To be noted: 60 min pre-incubation, 1 mM ATP; for inhibition at 10 µM: read-out: % inhibition @ 10 μM; for pIC50: read-out: IC50. Summed up: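 CDK7/CycH/MNAT1 (5 nM) was preincubated with compound for 60 min at room temperature, then reacted for 60 min with 100 nM ULight-MBP and 1 mM ATP in 1% DMSO. Irreversibility was probed with 20, 60 and 180 min preincubations.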
(In general: In TR-FRET formats the signal depends on donor and acceptor labels being close together.)

pIC50: −log10 of the molar value.

Chain of CDK7/CycH/MNAT1 (P50613 whole entry): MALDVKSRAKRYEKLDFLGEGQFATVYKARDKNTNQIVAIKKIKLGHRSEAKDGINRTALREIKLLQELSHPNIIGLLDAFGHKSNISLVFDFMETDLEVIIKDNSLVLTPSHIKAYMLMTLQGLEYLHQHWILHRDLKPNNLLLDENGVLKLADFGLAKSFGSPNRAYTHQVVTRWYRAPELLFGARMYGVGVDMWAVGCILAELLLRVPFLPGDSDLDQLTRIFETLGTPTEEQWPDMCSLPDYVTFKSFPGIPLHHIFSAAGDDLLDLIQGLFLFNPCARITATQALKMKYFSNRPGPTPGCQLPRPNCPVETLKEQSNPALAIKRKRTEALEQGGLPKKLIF
Chain of CDK7/CycH/MNAT1 (P51946 whole entry partner): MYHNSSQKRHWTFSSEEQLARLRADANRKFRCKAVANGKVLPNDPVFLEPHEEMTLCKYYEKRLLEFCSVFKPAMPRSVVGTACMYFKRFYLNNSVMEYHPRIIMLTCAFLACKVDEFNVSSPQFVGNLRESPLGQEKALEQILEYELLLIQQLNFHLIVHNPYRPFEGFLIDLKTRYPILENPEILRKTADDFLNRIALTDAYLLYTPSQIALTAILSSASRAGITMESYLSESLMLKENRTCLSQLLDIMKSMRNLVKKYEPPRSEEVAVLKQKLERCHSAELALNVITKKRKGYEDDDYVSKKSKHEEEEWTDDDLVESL
Chain of CDK7/CycH/MNAT1 (P51948 whole entry partner): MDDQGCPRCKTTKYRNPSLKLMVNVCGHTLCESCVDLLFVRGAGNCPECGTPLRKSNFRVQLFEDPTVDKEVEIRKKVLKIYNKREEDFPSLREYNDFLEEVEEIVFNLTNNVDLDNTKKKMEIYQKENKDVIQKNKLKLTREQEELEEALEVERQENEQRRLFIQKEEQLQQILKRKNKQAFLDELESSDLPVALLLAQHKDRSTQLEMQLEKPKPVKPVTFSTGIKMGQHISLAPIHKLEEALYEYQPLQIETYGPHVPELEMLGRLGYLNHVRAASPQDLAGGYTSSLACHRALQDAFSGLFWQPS

As usually defined, the inhibition is the share of the control response that was lost under treatment. The pIC50 is the IC50 on a negative log10 scale, so that one unit is a factor of ten. For the compound `C=CC(=O)N1CCC[C@H](NC(=O)c2cccc(CNc3nc(NC4CCOCC4)nc4c(C(C)C)cnn34)c2)C1` [Compound 41, (S)—N-(1-acryloylpiperidin-3-yl)-3-(((8-isopropyl-2-((tetrahydro-2H-pyran-4-yl)amino)pyrazolo[1,5-a][1,3,5]triazin-4-yl)amino)methyl)benzamide], the negative logarithm of the IC50 (pIC50) is 6.00 to 6.52. The inhibition at 10 µM (10 μM compound) stood at 92%.
`C=CC(=O)N1CCCC(C(=O)Nc2cccc(CNc3nc(OC4CCN(C)CC4)nc4ccnn34)c2)C1` (centres unmarked) [Compound 89, 1-acryloyl-N-(3-(((2-((1-methylpiperidin-4-yl)oxy)pyrazolo[1,5-a][1,3,5]triazin-4-yl)amino)methyl)phenyl)piperidine-3-carboxamide]: for the setting “10 μM compound”, the inhibition at 10 µM was found to be 38%.
Consider `CC(C)c1cnn2c(NCc3cccc(NC(=O)/C=C/CN4CCCCC4)c3)nc(NC3CCOCC3)nc12` [Compound 55, (E)-N-(3-(((8-isopropyl-2-((tetrahydro-2H-pyran-4-yl)amino)pyrazolo[1,5-a][1,3,5]triazin-4-yl)amino)methyl)phenyl)-4-(piperidin-1-yl)but-2-enamide], for which the pIC50 is over 6.52. Besides, the inhibition at 10 µM (10 μM compound) stood at 99%.
For `CC(C)c1cnn2c(NCc3cccc(NC(=O)C4CCCCN4C(=O)/C=C/CN(C)C)c3)nc(NC3CCOCC3)nc12` (centres unmarked) [Compound 74, (E)-1-(4-(dimethylamino)but-2-enoyl)-N-(3-(((8-isopropyl-2-((tetrahydro-2H-pyran-4-yl)amino)pyrazolo[1,5-a][1,3,5]triazin-4-yl)amino)methyl)phenyl)piperidine-2-carboxamide], in that order: over 6.52 and 99%.
As for `C=CC(=O)NCC(=O)Nc1cccc(CNc2nc(NC3CCOCC3)nc3c(C(C)C)cnn23)c1` [Compound 79, N-(2-((3-(((8-isopropyl-2-((tetrahydro-2H-pyran-4-yl)amino)pyrazolo[1,5-a][1,3,5]triazin-4-yl)amino)methyl)phenyl)amino)-2-oxoethyl)acrylamide], the negative logarithm of the IC50 (pIC50) was over 6.52. Under “10 μM compound”, the inhibition at 10 µM came out at 96%.
On to `C=C(C)C(=O)N1CCC1C(=O)Nc1cccc(CNc2nc(NC3CCOCC3)nc3c(C(C)C)cnn23)c1` (centres unmarked) [Compound 67, N-(3-(((8-isopropyl-2-((tetrahydro-2H-pyran-4-yl)amino)pyrazolo[1,5-a][1,3,5]triazin-4-yl)amino)methyl)phenyl)-1-methacryloylazetidine-2-carboxamide], for which the pIC50 was 6.00 to 6.52. Moreover, the inhibition at 10 µM (10 μM compound) was 91%.
For the compound `C=CC(=O)N1CCC1C(=O)Nc1cc(CNc2nc(NC3CCOCC3)nc3c(C(C)C)cnn23)ccc1C` (centres unmarked) [Compound 28, 1-acryloyl-N-(5-(((8-isopropyl-2-((tetrahydro-2H-pyran-4-yl)amino)pyrazolo[1,5-a][1,3,5]triazin-4-yl)amino)methyl)-2-methylphenyl)azetidine-2-carboxamide], the pIC50 is over 6.52. Also, under “10 μM compound”, the inhibition at 10 µM was 99%.
Take `CC(C)c1cnn2c(NCc3cccc(NC(=O)[C@H]4CC[C@@H](NC/C=C/C(=O)N(C)C)CC4)c3)nc(OC3CCN(C)CC3)nc12` [Compound 135, (1s,4s)-4-(((E)-4-(dimethylamino)-4-oxobut-2-en-1-yl)amino)-N-(3-(((8-isopropyl-2-((1-methylpiperidin-4-yl)oxy)pyrazolo[1,5-a][1,3,5]triazin-4-yl)amino)methyl)phenyl)cyclohexane-1-carboxamide]: the pIC50 was over 6.52. For the same compound, for the setting “10 μM compound”, the inhibition at 10 µM is 97%.
On to `C=CC(=O)Nc1ccccc1C(=O)Nc1cccc(CNc2nc(NC3CCOCC3)nc3c(C(C)C)cnn23)c1` [Compound 48, 2-acrylamido-N-(3-(((8-isopropyl-2-((tetrahydro-2H-pyran-4-yl)amino)pyrazolo[1,5-a][1,3,5]triazin-4-yl)amino)methyl)phenyl)benzamide], for which the pIC50 is over 6.52. Further, the inhibition at 10 µM (10 μM compound) was 98%.
Take `CC(C)c1cnn2c(NCc3cccc(NC(=O)/C=C/CN4CCC(F)C4)c3)nc(NC3CCOCC3)nc12` (centres unmarked) [Compound 56, (E)-4-(3-fluoropyrrolidin-1-yl)-N-(3-(((8-isopropyl-2-((tetrahydro-2H-pyran-4-yl)amino)pyrazolo[1,5-a][1,3,5]triazin-4-yl)amino)methyl)phenyl)but-2-enamide]: the negative logarithm of the IC50 (pIC50) was over 6.52. Moreover, where the note is “10 μM compound”, the inhibition at 10 µM worked out at 97%.
On to `C=CC(=O)N1CCC(C(=O)Nc2cccc(CNc3nc(OCC(C)C)nc4c(C(C)C)cnn34)c2)C1` (centres unmarked) [Compound 102, 1-acryloyl-N-(3-(((2-isobutoxy-8-isopropylpyrazolo[1,5-a][1,3,5]triazin-4-yl)amino)methyl)phenyl)pyrrolidine-3-carboxamide], for which the pIC50 was 6.00 to 6.52. Where the note is “10 μM compound”, the inhibition at 10 µM worked out at 82%.
In the case of `CC(C)c1cnn2c(NCc3ccc(F)c(NC(=O)C4CCN(C(=O)/C=C/CN(C)C)C4)c3)nc(NC3CCOCC3)nc12` (centres unmarked) [Compound 64, (E)-1-(4-(dimethylamino)but-2-enoyl)-N-(2-fluoro-5-(((8-isopropyl-2-((tetrahydro-2H-pyran-4-yl)amino)pyrazolo[1,5-a][1,3,5]triazin-4-yl)amino)methyl)phenyl) pyrrolidine-3-carboxamide], the pIC50 is 6.00 to 6.52. For the same compound, the inhibition at 10 µM (10 μM compound) stood at 91%.
Consider `C=CC(=O)N[C@H]1CC[C@@H](C(=O)Nc2cccc(Nc3nc(NC4CCOCC4)nc4c(C(C)C)cnn34)c2)CC1` [Compound 87, (1,4-cis)-4-acrylamido-N-(3-((8-isopropyl-2-((tetrahydro-2H-pyran-4-yl)amino)pyrazolo[1,5-a][1,3,5]triazin-4-yl)amino)phenyl)cyclohexane-1-carboxamide], for which the “% inhibition @ 10 μM” value (10 μM compound) is listed as 32%.
With `C=CC(=O)N1CCC1C(=O)Nc1cc(F)cc(CNc2nc(NC3CCOCC3)nc3c(C(C)C)cnn23)c1` (centres unmarked) [Compound 31, 1-acryloyl-N-(3-fluoro-5-(((8-isopropyl-2-((tetrahydro-2H-pyran-4-yl)amino)pyrazolo[1,5-a][1,3,5]triazin-4-yl)amino)methyl)phenyl)azetidine-2-carboxamide], the pIC50 was over 6.52. In addition, the inhibition at 10 µM (10 μM compound) came out at 100%.
`CC(C)c1cnn2c(NCc3ccccc3NC(=O)/C=C/CN(C)C)nc(NC3CCOCC3)nc12` [Compound 62, (E)-4-(dimethylamino)-N-(2-(((8-isopropyl-2-((tetrahydro-2H-pyran-4-yl)amino)pyrazolo[1,5-a][1,3,5]triazin-4-yl)amino)methyl)phenyl)but-2-enamide]: the pIC50 was over 6.52. In addition, for the setting “10 μM compound”, the inhibition at 10 µM came out at 97%.
As for `C=CC(=O)N1CCOC(C(=O)Nc2cccc(CNc3nc(NC4CCOCC4)nc4c(C(C)C)cnn34)c2)C1` (centres unmarked) [Compound 23, 4-acryloyl-N-(3-(((8-isopropyl-2-((tetrahydro-2H-pyran-4-yl)amino)pyrazolo[1,5-a][1,3,5]triazin-4-yl)amino)methyl)phenyl)morpholine-2-carboxamide], the pIC50 is over 6.52. For the same compound, the inhibition at 10 µM (10 μM compound) worked out at 98%.
For `C=CC(=O)N[C@H]1CC[C@@H](C(=O)Nc2cccc(CNc3nc(OC4CCOCC4F)nc4c(C(C)C)cnn34)c2)CC1` (single isomer, unassigned) [Compound 98, 4-acrylamido-N-(3-(((2-((3-fluorotetrahydro-2H-pyran-4-yl)oxy)-8-isopropylpyrazolo[1,5-a][1,3,5]triazin-4-yl)amino)methyl)phenyl)cyclohexane-1-carboxamide], in that order: 6.00 to 6.52 and 88%.

The values above are taken from patent US11186576B2, “Pyrazolo[1,5-A][1,3,5]triazine and pyrazolo[1,5-A]pyrimidine derivatives as CDK inhibitors” (Aurigene Discovery Technologies Limited, priority 2015, dated 2021).
